Reference: patent publication US20250122173A1, “MODULATORS OF RHO-ASSOCIATED PROTEIN KINASE” (Redx Pharma Limited, priority 2022, published 2025)

Key:
ROCK2 = molecular target: T1, ROCK2 (Homo sapiens, UniProt O75116); experiment: ROCK2 inhibition assay (ADP-Glo kinase assay, called ROCK2 binding activity); format: biochemical; conditions: 20 μM ATP, 1 hour pre-incubation, read-out: ROCK 2 (IC50 category)
T1 construct: N-terminal 6His-tagged ROCK2 catalytic domain 11-552; 6His (N); purchased Dundee University, UK; host or cells: baculovirus expression system
Method: ROCK2 Binding Activity: Assay for ROCK2 inhibition was performed using the protein construct N-terminal 6His-tagged ROCK2 catalytic domain 11-552 (Dundee University, UK). Protein was purified from a baculovirus expression system. Long S6 peptide ([…]) was used as substrate. Kinase reactions were carried out in 15 μl volume in a 96-well plate (black, half area) using 1.25 nM constitutively active ROCK2 kinase, 100 μM long S6 peptide, 20 μM ATP and test compound in DMSO (or DMSO only for controls). The final concentration of DMSO was 1%. Assay buffer was 50 mM HEPES pH 7.5 supplemented with 0.2 mM EDTA, 10 mM magnesium acetate, 0.01% Tween-20, 1 mM DTT and 0.01% BSA. Test compounds were pre-incubated with ROCK2 kinase for 1 hour before addition of ATP and long S6 peptide. After incubation for a further 1 hour, the amount of ADP produced was measured using ADP-Glo Kinase Assay (Promega) as per manufacturer's instructions. The luminescence was measured on a PHERAstar FS (BMG Labtech). The concentration of test compound required to inhibit ADP production by 50% (the IC50) was calculated using a four-parameter logistic function with software by Dotmatics. […] The category “+” refers to compounds with a ROCK2 or ROCK1 IC50 value of >10 μM. The category “++” refers to compounds with a ROCK2 or ROCK1 IC50 value of 10 to 3 μM. The category “+++” refers to compounds with a ROCK1 or ROCK2 IC50 value of 3 to 0.3 μM. The category “++++” refers to compounds with a ROCK1 or ROCK2 IC50 value of <0.3 μM.

ROCK1 = ROCK1 (Homo sapiens, UniProt Q13464); experiment: ROCK1 inhibition assay (ROCK1 binding activity, as determined by the assay described for ROCK2); format: biochemical; conditions: read-out: ROCK 1 (IC50 category)
Method: Assay for ROCK2 inhibition was performed using the protein construct N-terminal 6His-tagged ROCK2 catalytic domain 11-552 (Dundee University, UK). Protein was purified from a baculovirus expression system. Long S6 peptide ([…]) was used as substrate. Kinase reactions were carried out in 15 μl volume in a 96-well plate (black, half area) using 1.25 nM constitutively active ROCK2 kinase, 100 μM long S6 peptide, 20 μM ATP and test compound in DMSO (or DMSO only for controls). The final concentration of DMSO was 1%. Assay buffer was 50 mM HEPES pH 7.5 supplemented with 0.2 mM EDTA, 10 mM magnesium acetate, 0.01% Tween-20, 1 mM DTT and 0.01% BSA. Test compounds were pre-incubated with ROCK2 kinase for 1 hour before addition of ATP and long S6 peptide. After incubation for a further 1 hour, the amount of ADP produced was measured using ADP-Glo Kinase Assay (Promega) as per manufacturer's instructions. The luminescence was measured on a PHERAstar FS (BMG Labtech). The concentration of test compound required to inhibit ADP production by 50% (the IC50) was calculated using a four-parameter logistic function with software by Dotmatics. […] The category “+” refers to compounds with a ROCK2 or ROCK1 IC50 value of >10 μM. The category “++” refers to compounds with a ROCK2 or ROCK1 IC50 value of 10 to 3 μM. The category “+++” refers to compounds with a ROCK1 or ROCK2 IC50 value of 3 to 0.3 μM. The category “++++” refers to compounds with a ROCK1 or ROCK2 IC50 value of <0.3 μM.

T1 sequence (O75116 11-552): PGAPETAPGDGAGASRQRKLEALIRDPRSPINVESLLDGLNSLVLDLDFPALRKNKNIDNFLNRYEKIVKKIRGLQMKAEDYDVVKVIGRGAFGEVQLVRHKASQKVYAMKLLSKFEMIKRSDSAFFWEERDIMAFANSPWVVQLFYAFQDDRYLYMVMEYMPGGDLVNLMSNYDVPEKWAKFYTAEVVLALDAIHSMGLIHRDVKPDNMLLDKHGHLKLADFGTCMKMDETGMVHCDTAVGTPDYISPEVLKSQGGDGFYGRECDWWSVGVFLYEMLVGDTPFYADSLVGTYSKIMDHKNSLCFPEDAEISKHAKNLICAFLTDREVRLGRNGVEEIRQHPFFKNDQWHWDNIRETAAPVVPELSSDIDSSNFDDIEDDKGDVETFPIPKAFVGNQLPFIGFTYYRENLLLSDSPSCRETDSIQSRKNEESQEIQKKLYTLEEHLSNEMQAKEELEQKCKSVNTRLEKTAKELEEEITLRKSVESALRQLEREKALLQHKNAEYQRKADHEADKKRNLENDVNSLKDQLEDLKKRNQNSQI
Sequence of ROCK1 (Q13464 whole entry, the tested form may be a part): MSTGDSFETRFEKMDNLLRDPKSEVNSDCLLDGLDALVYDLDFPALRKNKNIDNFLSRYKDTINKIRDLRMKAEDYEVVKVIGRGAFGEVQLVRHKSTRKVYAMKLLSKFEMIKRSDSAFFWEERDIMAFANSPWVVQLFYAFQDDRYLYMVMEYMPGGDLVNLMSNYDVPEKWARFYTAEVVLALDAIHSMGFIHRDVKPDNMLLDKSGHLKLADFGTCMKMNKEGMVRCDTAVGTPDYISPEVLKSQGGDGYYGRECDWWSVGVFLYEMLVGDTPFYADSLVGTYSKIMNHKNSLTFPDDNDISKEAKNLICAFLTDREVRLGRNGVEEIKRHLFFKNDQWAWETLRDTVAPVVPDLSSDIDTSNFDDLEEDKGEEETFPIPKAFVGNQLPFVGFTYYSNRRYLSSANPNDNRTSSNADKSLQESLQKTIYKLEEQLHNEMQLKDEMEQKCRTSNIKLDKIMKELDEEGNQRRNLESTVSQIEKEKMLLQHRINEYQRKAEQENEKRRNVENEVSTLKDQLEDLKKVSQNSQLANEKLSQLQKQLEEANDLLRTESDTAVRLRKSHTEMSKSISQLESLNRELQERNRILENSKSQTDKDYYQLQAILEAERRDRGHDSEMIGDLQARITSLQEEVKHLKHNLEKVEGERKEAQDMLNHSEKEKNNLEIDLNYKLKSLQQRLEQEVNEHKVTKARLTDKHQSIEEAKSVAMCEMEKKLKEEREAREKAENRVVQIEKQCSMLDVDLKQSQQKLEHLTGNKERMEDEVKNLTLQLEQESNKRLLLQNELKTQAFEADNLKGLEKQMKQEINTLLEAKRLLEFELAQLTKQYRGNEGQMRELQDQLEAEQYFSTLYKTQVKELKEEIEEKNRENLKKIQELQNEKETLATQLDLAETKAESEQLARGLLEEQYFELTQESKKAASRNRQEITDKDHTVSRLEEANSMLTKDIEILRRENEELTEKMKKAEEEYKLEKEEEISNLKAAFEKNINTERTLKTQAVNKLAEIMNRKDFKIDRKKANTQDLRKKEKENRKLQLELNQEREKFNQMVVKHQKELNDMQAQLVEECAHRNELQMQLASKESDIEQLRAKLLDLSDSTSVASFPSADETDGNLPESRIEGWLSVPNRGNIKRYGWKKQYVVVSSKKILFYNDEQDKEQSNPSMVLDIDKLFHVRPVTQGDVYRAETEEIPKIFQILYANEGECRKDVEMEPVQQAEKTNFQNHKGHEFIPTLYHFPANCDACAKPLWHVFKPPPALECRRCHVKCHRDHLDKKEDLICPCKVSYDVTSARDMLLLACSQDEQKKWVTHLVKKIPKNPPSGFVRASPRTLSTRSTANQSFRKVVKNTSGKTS

| IC50 (ROCK2) | IC50 (ROCK1) | Structure (SMILES) |
| --- | --- | --- |
| < 300 nM | 3 to 10 µM | CCn1nc(-c2ccc(-c3ccc(C)nc3)cc2)nc1Nc1cc2c(cc1C)C(=O)NC2C (single isomer, unassigned) [Example 78] |
| < 300 nM | 3 to 10 µM | CCn1nc(-c2ccc(-c3ccc(C)nc3)cc2)nc1Nc1cc2c(cc1C)C(=O)NC2C (single isomer, unassigned) [Example 84] |
| < 300 nM | > 10 µM | Cc1cn(-c2ccc(-c3nc(Nc4ccc5c(c4)CNC5=O)n(C)n3)cc2)cn1 [Example 1] |
| < 300 nM | > 10 µM | CCc1cn(-c2ccc(-c3nc(Nc4ccc5c(c4)CNC5=O)n(C)n3)cc2)c(C)n1 [Example 2] |
| < 300 nM | > 10 µM | Cc1nc(C2CC2)cn1-c1ccc(-c2nc(Nc3ccc4c(c3)CNC4=O)n(C)n2)cc1 [Example 3] |
| < 300 nM | 3 to 10 µM | CCn1nc(-c2ccc(-n3cc(C4CC4)nc3C)cc2)nc1Nc1ccc2c(c1)CNC2=O [Example 4] |
| < 300 nM | 3 to 10 µM | Cn1nc(-c2ccc(-c3ccnc(C(F)(F)F)c3)cc2)nc1Nc1ccc2c(c1)CNC2=O [Example 5] |
| < 300 nM | > 10 µM | Cn1nc(-c2ccc(C(=O)NCC(F)(F)F)cc2)nc1Nc1ccc2c(c1)CNC2=O [Example 6] |
| 3000 to 10000 nM | > 10 µM | Cn1nc(-c2ccc(C(=O)NCC(F)F)cc2)nc1Nc1ccc2c(c1)CNC2=O [Example 7] |
| < 300 nM | > 10 µM | CCn1nc(-c2ccc(-n3cc(C4CC4)nc3C)cc2)nc1Nc1ccc2c(c1C)CNC2=O [Example 8] |
| 3000 to 10000 nM | > 10 µM | Cn1nc(-c2cccc(C(=O)NCC(F)(F)F)c2)nc1Nc1ccc2c(c1)CNC2=O [Example 9] |
| < 300 nM | > 10 µM | Cn1nc(-c2ccc(-c3ccc(C(F)(F)F)nc3)cc2)nc1Nc1ccc2c(c1)CNC2=O [Example 10] |
| 3000 to 10000 nM | > 10 µM | CCn1nc(-c2ccc(-c3cnc(C4CC4)n3C)cc2)nc1Nc1ccc2c(c1C)CNC2=O [Example 11] |
| 3000 to 10000 nM | > 10 µM | Cc1cc(-c2nc(Nc3ccc4c(c3C)CNC4=O)n(C)n2)ccc1-c1cnc(C2CC2)n1C [Example 12] |
| < 300 nM | > 10 µM | Cc1cc(-c2nc(Nc3ccc4c(c3C)CNC4=O)n(C)n2)ccc1-n1cnc(C2CC2)c1 [Example 13] |
| < 300 nM | > 10 µM | Cn1nc(-c2ccc(-n3cnc(C4CC4)c3)cc2)nc1Nc1ccc2c(c1)CNC2=O [Example 14] |
| < 300 nM | 3 to 10 µM | CCn1nc(-c2ccc(-c3ccc(C)nc3)cc2)nc1Nc1ccc2c(c1)CNC2=O [Example 15] |
| < 300 nM | > 10 µM | Cn1nc(-c2ccc(-n3cnc(C4CC4)c3)cc2)nc1Nc1ccc2c(c1)C(C)(C)NC2=O [Example 16] |
| 3000 to 10000 nM | > 10 µM | Cc1nc(C2CC2)cn1-c1ccc(-c2nc(Nc3ccc4c(c3)C(C)(C)NC4=O)n(C)n2)cc1 [Example 17] |
| 3000 to 10000 nM | > 10 µM | CCn1nc(-c2ccc(-n3cc(C4CC4)nc3C)cc2)nc1Nc1ccc2c(c1)C(C)(C)NC2=O [Example 18] |
| < 300 nM | > 10 µM | CCn1nc(-c2ccc(-n3cnc(C4CC4)c3)cc2)nc1Nc1ccc2c(c1)C(C)(C)NC2=O [Example 19] |
| < 300 nM | 3 to 10 µM | CCn1nc(-c2ccc(-c3ccc(C4CC4)nc3)cc2)nc1Nc1ccc2c(c1)CNC2=O [Example 20] |
| < 300 nM | 3 to 10 µM | CCn1nc(-c2ccc(-n3cnc(C4CC4)c3)cc2)nc1Nc1ccc2c(c1)C(C)NC2=O (centres unmarked) [Example 21] |
| < 300 nM | 3 to 10 µM | CCn1nc(-c2ccc(-n3cc(C4CC4)nc3C)cc2)nc1Nc1ccc2c(c1)C(C)NC2=O (centres unmarked) [Example 22] |
| < 300 nM | > 10 µM | CCn1nc(-c2ccc(-n3cnc(C4CC4)c3)cc2)nc1Nc1ccc2c(c1)C1(CC1)NC2=O [Example 23] |

| IC50 (ROCK2) | IC50 (ROCK1) | Structure (SMILES) |
| --- | --- | --- |
| < 300 nM | 3 to 10 µM | CCn1nc(-c2ccc(-n3cnc(C4CC4)c3)cc2)nc1Nc1ccc2c(c1)CNC2=O [Example 24] |
| < 300 nM | 3 to 10 µM | CCn1nc(-c2ccc(-c3cnc(C4CC4)n3C)cc2)nc1Nc1ccc2c(c1)CNC2=O [Example 25] |
| < 300 nM | 3 to 10 µM | CCn1nc(-c2ccc(-c3ccnc(C)c3)c(C)c2)nc1Nc1ccc2c(c1)CNC2=O [Example 26] |
| < 300 nM | 3 to 10 µM | CCn1nc(-c2ccc(-c3ccc(C)cn3)cc2)nc1Nc1ccc2c(c1)CNC2=O [Example 27] |
| < 300 nM | 3 to 10 µM | CCn1nc(-c2ccc(-c3ccccn3)cc2)nc1Nc1ccc2c(c1)CNC2=O [Example 28] |
| < 300 nM | 3 to 10 µM | CCn1nc(-c2ccc(-c3cccnc3)cc2)nc1Nc1ccc2c(c1)CNC2=O [Example 29] |
| < 300 nM | 3 to 10 µM | CCn1nc(-c2ccc(-c3ccncc3)cc2)nc1Nc1ccc2c(c1)CNC2=O [Example 30] |
| < 300 nM | 3 to 10 µM | CCn1nc(-c2ccc(-c3ccc(C)nc3)c(C)c2)nc1Nc1ccc2c(c1)CNC2=O [Example 31] |
| < 300 nM | < 0.3 µM | CCn1nc(-c2ccc(-c3ccnc(C4CC4)c3)c(C)c2)nc1Nc1ccc2c(c1)CNC2=O [Example 32] |
| < 300 nM | 3 to 10 µM | CCn1nc(-c2ccc(-c3ccnc(C4CC4)c3)c(F)c2)nc1Nc1ccc2c(c1)CNC2=O [Example 33] |
| < 300 nM | 3 to 10 µM | CCn1nc(-c2ccc(-c3ccnc(C)c3)c(F)c2)nc1Nc1ccc2c(c1)CNC2=O [Example 34] |
| 3000 to 10000 nM | > 10 µM | CCn1nc(-c2ccc(-c3ccc(C)nc3)cc2)nc1Nc1ccc2c(c1)CN(C)C2=O [Example 35] |
| < 300 nM | < 0.3 µM | CCn1nc(-c2ccc(-c3ccc(C)nc3)c(OC)c2)nc1Nc1ccc2c(c1)CNC2=O [Example 36] |
| < 300 nM | > 10 µM | CCn1nc(-c2ccc(-c3ccc(C4CC4)nc3)c(F)c2)nc1Nc1ccc2c(c1)CNC2=O [Example 37] |
| < 300 nM | > 10 µM | CCn1nc(-c2ccc(-c3ccc(C)nc3)nc2)nc1Nc1ccc2c(c1)CNC2=O [Example 39] |
| < 300 nM | > 10 µM | CCn1nc(-c2ccc(-c3ccc(C4CC4)nc3)c(C)c2)nc1Nc1ccc2c(c1)CNC2=O [Example 40] |
| < 300 nM | 3 to 10 µM | CCn1nc(-c2ccc(-c3ccc(C)nc3)cc2)nc1Nc1cc2c(cc1C)C(=O)NC2C (centres unmarked) [Example 41] |
| < 300 nM | < 0.3 µM | CCn1nc(-c2ccc(-c3cnc(C)c(C)c3)cc2)nc1Nc1ccc2c(c1)CNC2=O [Example 42] |
| 3000 to 10000 nM | > 10 µM | CCn1nc(-c2ccc(-c3ccc(C)nc3)cc2)nc1Nc1ccc2c(c1C)C(C)NC2=O (centres unmarked) [Example 43] |
| < 300 nM | > 10 µM | CCn1nc(-c2ccc(-c3ccc(C)cn3)c(C)c2)nc1Nc1ccc2c(c1)CNC2=O [Example 44] |
| < 300 nM | 3 to 10 µM | CCn1nc(-c2ccc(-n3cnc(C4CC4)c3)cc2)nc1Nc1cc2c(cc1C)C(=O)NC2C (centres unmarked) [Example 45] |
| 300 to 3000 nM | > 10 µM | CCn1nc(-c2ccc(-c3ccc(C)nc3)cc2)nc1Nc1cnc2c(c1)CNC2=O [Example 46] |
| < 300 nM | 3 to 10 µM | CCn1nc(-c2ccc(-c3ccc(C4CC4)nc3)cc2)nc1Nc1ccc2c(c1)C(C)NC2=O (centres unmarked) [Example 47] |
| < 300 nM | 3 to 10 µM | CCn1nc(-c2ccc(-c3ccc(C4CC4)nc3)c(C)c2)nc1Nc1cc2c(cc1C)C(=O)NC2C (centres unmarked) [Example 48] |
